We go through four compounds from patent publication US20050215548A1 (Cyclacel Limited, priority 2002, published 2005).

In one data set the target is T1, HDM2 (Homo sapiens, UniProt Q00987).
T1 construct: Recombinant HDM2 (1.5 μg per well) in TBS-BSA buffer
Nature of the data set: Fluorescence polarisation competitive HDM2 binding assay. Put shortly:
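Recombinant HDM2 (1.5 μg/well) was preincubated 5 min at room temperature with serially diluted compound in 50 mM Tris pH 7.4, 150 mM NaCl, 0.1% BSA, 5% DMSO final. Fluorescein-labelled p53 peptide (0.2 μM) was then added for 45 min. Polarisation was read at 485/520 nm and IC50 derived from dose-response curves.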
In general terms: In fluorescence polarisation assays a small probe gives low polarisation when free and higher when bound to something large.

The test system of a further data set is AGS. Nature of the data set: 72-h MTT cytotoxicity assay, AGS. In kind it is cell-based. Conditions: Homo sapiens, 72-h MTT, Table 1, read-out: IC50 Anti-proliferative effect on cell line AGS. How it is done:
(§1) The fluorescence polarisation competitive HDM2 binding assay described in Example 3 was used. Furthermore, the anti-proliferative potency of the compounds against three human tumour cell lines with different genetic make-up was also determined. […] The cell lines used were as follows: AGS, gastric adenocarcinoma, wild-type p53; H1299, large cell lung carcinoma, p53 null, low HDM2; SJSA-1, primitive multipotential bone sarcoma, wild-type p53, overexpressed HDM2.
(§2) Representative bisarylsulfonamide compounds were tested on a panel of transformed and non-transformed human cell lines, using a standard 72-h MTT cytotoxicity assay [Haselsberger K et al, ibid].
In general terms: Formazan colour is commonly taken as a measure of viable cells.

Another data set has as its system H1299. Nature of the data set: 72-h MTT cytotoxicity assay, H1299. It counts as cell-based. The conditions noted are these: Homo sapiens, NCI-H1299; 72-h MTT; Table 1; read-out: IC50 Anti-proliferative effect on cell line H 1299. How it is done:
as §1, §2

In another data set the test system is SJSA-1. Nature of the data set: 72-h MTT cytotoxicity assay, SJSA-1. In kind it is cell-based. The conditions noted are these: Homo sapiens, SJSA-1; 72-h MTT; Table 1; read-out: IC50 Anti-proliferative effect on cell line SJSA-1. How it is done: as §1, §2
The subject of data set [1] is E2F transcription factors. Nature of the data set: E2F reporter gene assay (A549-derived luciferase reporter cell line). In kind it is cell-based. The conditions noted are these: Homo sapiens; after 3-h treatment with test compounds; read-out: IC50 E2F reporter, Non-synchronised cells. As to the method:
A similar system to the p53 reporter assay described above was used, with the exception that it was designed to be responsive to E2F transcription factors rather than p53. An A549-derived cell line stably transfected with an E2F response element and a luciferase reporter gene was created. The genetic expression cassette construct used was from Clontech (Mercury™ Cell Cycle Profiling System). Assays were carried out as described above.
Representative bisarylsulfonamides were tested in the E2F gene reporter assay described in Example 6.
In general terms: Reporter assays use an easily measured gene product as a stand-in for the process of interest.

The subject of another data set is p53. Nature of the data set: p53 reporter gene assay (U2OS-derived luciferase reporter cell line). Conditions: for Fold induction of luciferase activity: compared to basal luciferase activity, 16-h time point, at concentration of maximal induction; for Concentration (test compound concentration at which the p53 induction was maximal): p53 reporter, U2OS-derived cell line.

Setting [2] is: fluorescence polarisation assay, Table 3, read-out: In vitro competitive HDM2 binding assay IC50.
[3] abbreviates: fluorescence polarisation format, Table 1, read-out: IC50 In vitro competitive HDM2 binding assay.

The structures appear in SMILES notation. Read-outs that look alike come from different tables or passages of the source.

T1 sequence (Q00987 whole entry): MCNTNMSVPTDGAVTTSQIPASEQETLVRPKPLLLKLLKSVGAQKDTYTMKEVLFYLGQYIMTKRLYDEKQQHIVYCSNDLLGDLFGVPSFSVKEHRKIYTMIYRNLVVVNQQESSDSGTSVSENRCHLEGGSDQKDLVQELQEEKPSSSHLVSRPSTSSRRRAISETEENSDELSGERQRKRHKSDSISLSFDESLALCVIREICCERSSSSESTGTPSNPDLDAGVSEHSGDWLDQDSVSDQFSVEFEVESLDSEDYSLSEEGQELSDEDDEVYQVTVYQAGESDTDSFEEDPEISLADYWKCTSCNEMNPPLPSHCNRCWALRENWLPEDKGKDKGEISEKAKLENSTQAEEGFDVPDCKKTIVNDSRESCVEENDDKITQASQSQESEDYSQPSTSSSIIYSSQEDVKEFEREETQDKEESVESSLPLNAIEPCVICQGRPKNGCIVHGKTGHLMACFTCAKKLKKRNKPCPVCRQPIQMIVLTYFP

Take `O=[N+]([O-])c1cc(S(=O)(=O)NCc2ccc(C(F)(F)F)cc2)sc1Cl` [Compound 46, 5-Chloro-4-nitrothiophene-2-sulfonic acid 4-trifluoromethylbenzylamide]: the IC50 – broadly, the concentration needed to halve the response being measured – on HDM2 (setting [2]) was found to be 11.1 ± 1.7 µM; on HDM2 (setting [3]) it was 11.1 ± 1.7 µM; in the data set on AGS, 1.3 ± 0.5 µM; in the data set with H1299 it was 3.4 ± 0.5 µM; in the data set on SJSA-1 it was 4.4 ± 1.1 µM; in data set [1], 25.5 ± 3.1 µM. Moreover, the “Fold induction of luciferase activity” value in the data set on p53 stood at 55 fold. Also, the “Concentration (test compound concentration at which the p53 induction was maximal)” value (shortened to “Concentration”) with p53 came out at 6 µM.
For the compound `O=[N+]([O-])c1cc(S(=O)(=O)NCCc2c[nH]c3ccccc23)sc1Cl` [Compound 48, 5-Chloro-4-nitrothiophene-2-sulfonic acid [2-(1H-indol-3-yl)-ethyl]amide], the IC50 on HDM2 (setting [2]) amounted to 25.3 ± 4.6 µM; at HDM2 (setting [3]), 25.3 ± 4.6 µM; in the data set on AGS, 2.6 ± 1.4 µM; in the data set with H1299, 3.6 ± 0.9 µM; in the data set with SJSA-1, 3.1 ± 1 µM; in data set [1] it was 31.3 ± 2.6 µM. Moreover, in the data set with p53, the “Fold induction of luciferase activity” value came out at 43.5 fold. Also, the “Concentration” value in the data set on p53 came out at 5.5 µM.
Consider `COc1ccc(NS(=O)(=O)c2cc([N+](=O)[O-])c(Cl)s2)cc1` [Compound 61, 5-Chloro-4-nitro-thiophene-2-sulfonic acid (4-methoxy-phenyl)-amide], for which the IC50 came to 45 ± 14 µM at HDM2 (setting [2]); 45 ± 14 µM on HDM2 (setting [3]); 1.8 ± 0.4 µM with AGS; 2.7 ± 0.4 µM in the data set on H1299; 2.8 ± 0.2 µM in the data set with SJSA-1; 34.6 ± 22.9 µM in data set [1]. The “Fold induction of luciferase activity” value in the data set with p53 is given as 34 fold. For the same compound, in the data set with p53, the “Concentration” value amounted to 4.8 µM.
Take `O=[N+]([O-])c1cc(S(=O)(=O)Nc2nc3ccccc3[nH]2)ccc1Cl` [Compound 83, N-(1H-Benzoimidazol-2-yl)-4-chloro-3-nitro-benzenesulfonamide]: the IC50 on HDM2 (setting [2]) was found to be 119 ± 42.5 µM; at HDM2 (setting [3]), 119 ± 43 µM; in the data set on AGS, 0.9 ± 0.1 µM; with H1299, 1.4 ± 0.2 µM; in the data set on SJSA-1 it was 2.3 ± 0.9 µM; in data set [1] it was 29.4 ± 6 µM. For the same compound, the “Fold induction of luciferase activity” value in the data set on p53 came out at 10 fold. Further, the “Concentration” value in the data set on p53 amounted to 5 µM.
